≈ marks a conversion by molar mass, not a printed value.

For this data set the following is noted: buffer; pH 7.4; 200.0 µM.
In turn, `O=C(CCC1CCCCC1)Nc1ccc(C(=O)c2ccncc2)cc1` yielded a solubility (kinetic) of less than 0.4 µg/mL.

As to `COc1ccc(C2C3=C(CCCC3=O)NC3=C2C(=O)c2ccccc23)cc1` (stereo not drawn), the solubility (kinetic) was less than 0.8 µg/mL. For the compound `CN(C)c1ccc(C(O)Cc2nc3ccccc3n2C)cc1` (stereo not drawn), the solubility (kinetic) is 12.1 µg/mL (≈ 41 µM). To `Cc1ccc(S(=O)(=O)NCC(=O)OCC(=O)N(CCC#N)c2ccccc2)cc1` belongs greater than 62.3 µg/mL.

As to `O=C(O)CC(c1ccc(F)cc1F)N1Cc2ccccc2C1=O` (stereo not drawn), the solubility (kinetic) was greater than 47.6 µg/mL. To `COC(=O)c1cc(CNC(=O)CC(C)c2ccccc2)ccc1OC` (stereo not drawn) belongs greater than 51.2 µg/mL; to `Cn1ccnc1SCC(=O)c1cccc(C(F)(F)F)c1`, greater than 45 µg/mL. The result for `CC(C)c1ccccc1NC(=S)NCCCn1ccnc1` reads greater than 45.4 µg/mL; that for `CCOc1cc(N2CCOCC2)c(OCC)cc1NC(=O)C(C)Oc1ccccc1` (stereo not drawn), 43.6 µg/mL (≈ 105 µM); that for `COC(=O)c1ccc(NC(=O)C[n+]2ccccc2C)cc1.[Cl-]`, greater than 48.1 µg/mL. To `COc1cccc(CN(C)C(c2ccccc2)c2ccccc2)c1OC` belongs 1.7 µg/mL (≈ 4.89 µM); to `Cc1ccccc1OCCC(=O)Nc1ccccc1C(=O)N1CCCCC1`, 52.7 µg/mL (≈ 144 µM); to `CCOc1ncccc1C(=O)Nc1ccc(F)c(Cl)c1`, 1 µg/mL (≈ 3.39 µM). The compound `CCn1c(SC(C)C(=O)NCC2CCCO2)nc2ccccc21` (stereo not drawn) displayed a kinetic solubility of 49.9 µg/mL (≈ 150 µM). This solubility kinetic lies about 50-fold higher than the previous one.

As to `COc1cccc(NC(=O)c2cccc(C(=O)Nc3cccc(OC)c3)c2)c1`, the solubility (kinetic) was less than 0.4 µg/mL. To `CC(C)(C)C1CCC(N2CCN(c3ccccc3)CC2)CC1` (stereo not drawn) belongs 0.5 µg/mL (≈ 1.66 µM); to `CC1CCC(C(C)C)C(OCC(O)CN2CCCC(C)C2)C1.Cl` (stereo not drawn), greater than 52.2 µg/mL; to `O=C(COC(=O)C1CCCC1)Nc1ncc(Cl)cc1Cl`, greater than 47.6 µg/mL. As to `CC(=O)N(Cc1ccccc1)c1ccccc1C(=O)O`, the kinetic solubility was greater than 40.4 µg/mL. Compound `O=C(/C=C/c1ccc(F)cc1)NC(=S)NC1CCCCC1` gave a kinetic solubility of 0.5 µg/mL (≈ 1.63 µM).

`Fc1cccc(COc2ccccc2C(=S)N2CCCC2)c1` came in with a solubility (kinetic) of 15 µg/mL (≈ 47.6 µM). This solubility kinetic is about 30-fold higher than that of the compound before. The result for `CCc1nc2ccccc2c(C(=O)Nc2ccc(C)cc2)c1C` reads less than 0.3 µg/mL; that for `O=C(/C=C/c1ccc2c(c1)OCO2)c1ccccn1`, 4.2 µg/mL (≈ 16.6 µM).

`O=C(CN1CCN(c2ccccc2)CC1)c1c[nH]c2ccccc12`: the solubility (kinetic) was determined as 4.4 µg/mL (≈ 13.8 µM). To `Cc1csc(=O)n1CCC(=O)NCc1ccc(F)cc1` belongs greater than 44.2 µg/mL; to `O=C(Nc1ccccc1Cl)C1C(c2ccccc2)C1(Cl)Cl` (stereo not drawn), less than 0.7 µg/mL. In turn, `Cc1cc(C)nc(NC(=S)Nc2ccccc2)n1` gave a solubility (kinetic) of 0.3 µg/mL (≈ 1.16 µM). To `CCc1ccc(N2C(=O)CC(=O)NC2=O)cc1` belongs greater than 34.8 µg/mL. The result for `Cc1cc(NC(=O)c2ccc(F)cc2)no1` reads 20.7 µg/mL (≈ 94 µM). In turn, `O=C(Nc1ccc2c(c1)OCO2)c1ccc([N+](=O)[O-])cc1[N+](=O)[O-]` showed a kinetic solubility of 10.6 µg/mL (≈ 32 µM). With `O=C(O)CCC(CNS(=O)(=O)c1ccccc1)C(F)(F)F` (stereo not drawn), the solubility (kinetic) was greater than 48.8 µg/mL.

Regarding `O=[N+]([O-])c1ccc(Nc2cccc(F)c2)nc1`, the solubility (kinetic) turned out to be 13.4 µg/mL (≈ 57.5 µM). The result for `CC(OC(=O)c1ccccc1Oc1ccccc1)C(=O)NC1CC1` (stereo not drawn) reads greater than 48.8 µg/mL. To `COc1ccccc1N1CCN(C(=S)Nc2ccc(F)cc2)CC1` belongs 4 µg/mL (≈ 11.6 µM). To `Cn1cc(C(=O)OCC(=O)Nc2ccccc2)c2ccccc21` belongs 7.8 µg/mL (≈ 25.3 µM); to `Cc1ccc(NC(=O)CCC(=O)N2CCOCC2)nc1`, greater than 41.6 µg/mL.

`COC(=O)C(Cc1ccc(O)cc1)NC(=O)NC12CC3CC(CC(C3)C1)C2` (stereo not drawn) showed a solubility (kinetic) of 27.5 µg/mL (≈ 73.8 µM).

Turning to `Cc1ccc(NC(=O)N2CCCC2c2cccs2)cc1` (stereo not drawn), the solubility (kinetic) is greater than 43 µg/mL. The result for `CCOC(=O)c1c(NC(=S)Nc2cccnc2)sc(C)c1C` reads 20.1 µg/mL (≈ 59.9 µM); that for `CCCC(=O)Nc1c(-c2cccc(OC)c2)c(=O)c2ccccc2n1C`, greater than 52.6 µg/mL; that for `CCOc1ccccc1NC(=O)c1cc2ccccc2oc1=O`, less than 0.7 µg/mL. For the compound `CC(=O)c1c(C)[nH]c(C(=O)COC(=O)c2nccnc2N)c1C`, the kinetic solubility stood at 11.9 µg/mL (≈ 37.6 µM). `O=C(NCCc1ccccc1)C1(S(=O)(=O)c2ccc(Cl)cc2)CC1` gave a solubility (kinetic) of 33.9 µg/mL (≈ 93.2 µM). The result for `COc1ccc(N2CCN(c3ccc(Cl)nn3)CC2)cc1` reads greater than 45.7 µg/mL.

The compound `COc1cc(/C=N/NC(=O)CNC(=O)c2ccncc2)ccc1O` registered a kinetic solubility greater than 49.2 µg/mL.

`CCOc1cc([N+](=O)[O-])c2nc(N)sc2c1` had a kinetic solubility of 4.3 µg/mL (≈ 18 µM). The result for `Cc1cc(NC(=O)COC(=O)c2c(C)c(C)c(C)c(C)c2C)no1` reads 2.3 µg/mL (≈ 6.96 µM); that for `CC(=O)N/C(=C\c1ccc2c(c1)OCO2)C(=O)NC(C(=O)O)c1ccccc1` (stereo not drawn), greater than 57.4 µg/mL. To `C=CCn1c(O)c(C=NCCCn2ccnc2)c(=O)[nH]c1=O` belongs greater than 45.5 µg/mL. To `Cc1onc(-c2c(Cl)cccc2Cl)c1C(=O)N=C(N)N1CCCC1` belongs 12 µg/mL (≈ 32.7 µM).

Consider `COc1ccccc1CNC(=O)CSc1nc(C)cs1`, for which the solubility (kinetic) is greater than 46.3 µg/mL.

Compound `COc1cccc(C(=O)OCC(=O)N2CCC(Cc3ccccc3)CC2)c1OC` came in with a kinetic solubility of 28.1 µg/mL (≈ 70.7 µM). To `O=C(c1ccccc1)N(Cc1ccccc1)Cc1ccccc1` belongs 0.8 µg/mL (≈ 2.65 µM); to `CCOC(=O)CNC(=O)CSc1nc(-c2cccc(C)c2)ns1`, 40.9 µg/mL (≈ 116 µM). To `CCc1cc(=O)oc2cc(C)cc(OCC(=O)NC3CC3)c12` belongs 25 µg/mL (≈ 83 µM); to `O=C(Nc1ccc(F)cc1F)NC1CCCc2ccccc21` (stereo not drawn), 0.3 µg/mL (≈ 0.992 µM). To `CSc1oc(-c2cccs2)nc1S(=O)(=O)c1ccccc1` belongs 3.9 µg/mL (≈ 11.6 µM). For the compound `O=C(O)c1nccnc1C(=O)NCCc1c[nH]c2ccccc12`, the kinetic solubility is 42.1 µg/mL (≈ 136 µM). The result for `CC(C)C(=O)OCC(=O)NCc1ccccc1Cl` reads 37.6 µg/mL (≈ 139 µM); that for `c1cc(CNCCc2ccc3c(c2)OCO3)ccn1`, 28.5 µg/mL (≈ 111 µM). In the case of `CN(CC(=O)Nc1ccccc1Br)C(=O)CN1CCN(Cc2cccc(Cl)c2)CC1`, the kinetic solubility is greater than 74.1 µg/mL. The result for `CCCc1cc(=O)[nH]c(SCC(=O)Nc2cc(S(=O)(=O)N3CCOCC3)ccc2N(CC)CC)n1` reads greater than 78.6 µg/mL. To `Cc1cc2ncc(S(=O)(=O)C(C)(C)C)c(N)n2n1` belongs greater than 40.2 µg/mL; to `CN(C)c1ncnc2sc(-c3ccccc3)cc12`, 3 µg/mL (≈ 11.7 µM). To `COCCNC(=O)Cn1cc(C=C2C(=O)NC(=O)NC2=O)c2ccccc21` belongs 6.3 µg/mL (≈ 17 µM). In turn, `S=C(NC1CCCCC1)N1CCn2cccc2C1c1cccnc1` (stereo not drawn) registered a kinetic solubility greater than 51.1 µg/mL.

Compound `CC(CCN1CCN(c2ccccc2)CC1)c1ccccc1.Cl` (stereo not drawn) yielded a kinetic solubility of 29.7 µg/mL. The result for `Cc1nnc(SCc2nnc(-c3cccs3)o2)n1C` reads greater than 44 µg/mL.

In turn, `CCC(=O)c1ccc(OC(=O)c2cnccn2)cc1` showed a solubility (kinetic) greater than 38.4 µg/mL.

`N#Cc1ccc(OCC(=O)Nc2ccc3[nH]c(=O)[nH]c3c2)cc1` had a solubility (kinetic) of 7.3 µg/mL (≈ 23.7 µM). The result for `COc1cc(NS(=O)(=O)c2ccc(NC(=S)NC(C)=O)cc2)nc(OC)n1` reads greater than 61.7 µg/mL; that for `CN(C)c1nc2c(N)ncnc2n1[C@H]1O[C@@H](CO)[C@H](O)[C@@H]1O`, greater than 46.5 µg/mL; that for `S=C(NC1CCCCC1)N1CCc2[nH]c3ccccc3c2C1`, 1.3 µg/mL (≈ 4.15 µM). The result for `Cc1cc(C(=O)N2CCC(Cc3ccccc3)CC2)no1` reads 36.7 µg/mL (≈ 129 µM); that for `CCN(/C=N/S(=O)(=O)c1ccc(Cl)cc1)CC`, greater than 41.2 µg/mL. The result for `O=C(OCC(=O)N1CCOCC1)c1cc(F)c(F)cc1Cl` reads greater than 48 µg/mL. Turning to `C=C1N(C)c2cc([N+](=O)[O-])c(N)cc2C1(C)C`, the solubility (kinetic) was greater than 35 µg/mL. As to `O=C(Cc1cc2ccccc2o1)NCc1ccc(F)cc1`, the solubility (kinetic) was determined as 5 µg/mL (≈ 17.6 µM). To `Cc1ccc(Cl)cc1N1C(=O)CC(C)(C)CC1=O` belongs 15.7 µg/mL (≈ 59.1 µM); to `CCOC(=O)c1cnc2c(ccc3ccccc32)c1Cl`, less than 0.6 µg/mL. To `O=C(O)c1ccc(OCC(F)(F)F)nc1` belongs greater than 33.2 µg/mL; to `c1ccc(Oc2nc(-c3ccccn3)nc3ccccc23)cc1`, 43.1 µg/mL (≈ 144 µM); to `O=C(CSc1ccccn1)Nc1ccc(Cl)c([N+](=O)[O-])c1`, 1.7 µg/mL (≈ 5.25 µM). The compound `Nc1nc(NCC(=O)O)nc(N2CCCCCC2)c1[N+](=O)[O-]` displayed a solubility (kinetic) of 44.1 µg/mL (≈ 142 µM). As to `Cc1[nH]n(-c2ccccc2)c(=O)c1C=NCC1CCCO1` (stereo not drawn), the solubility (kinetic) was greater than 42.8 µg/mL. The result for `COc1ccc(S(=O)(=O)NCCC(=O)OCC(=O)NC2CC2)cc1` reads greater than 53.5 µg/mL; that for `O=C(NC(=S)Nc1ccccc1OC(F)F)c1ccc2c(c1)OCO2`, 4.4 µg/mL (≈ 12 µM). The result for `COc1ccc(C(=O)CCNc2ccc(F)cc2)cc1` reads less than 0.6 µg/mL. To `Cc1nc(NC(=O)C2CC2)sc1C(=O)Nc1ccccc1` belongs 3.8 µg/mL (≈ 12.6 µM); to `CC(C)NC(=O)N1c2ccccc2Sc2ccccc21`, 33.4 µg/mL (≈ 117 µM); to `CCn1c(CNC(=O)c2ccc(F)cc2)cc2ccccc21`, 1.5 µg/mL (≈ 5.06 µM). In turn, `OCC[N+]12CCC(CC1)C(C(O)(c1ccccc1)c1ccccc1)C2` (stereo not drawn) returned a solubility (kinetic) greater than 50.8 µg/mL.

For the compound `COC(=O)c1ccc(S(=O)(=O)N2CCOCC2)o1`, the kinetic solubility was greater than 41.3 µg/mL. The result for `Cc1cc(Cl)ccc1NC(=O)C1COc2ccccc2O1` (stereo not drawn) reads 18.1 µg/mL (≈ 59.6 µM); that for `O=c1[nH]c2cc3c(cc2cc1CN(Cc1cccnc1)C(=S)NCc1ccco1)OCCO3`, less than 0.2 µg/mL; that for `CCOC(=O)c1[nH]c(C)c(C(=O)/C=C/c2ccc(C(=O)O)cc2)c1C`, greater than 51.2 µg/mL. The compound `Cc1c(C(=O)NCCCn2ccnc2)oc2ccccc12` yielded a solubility (kinetic) of 34.1 µg/mL (≈ 120 µM). The result for `O=C(O)COCC(=O)Nc1ccc(-n2cnnn2)cc1` reads greater than 41.6 µg/mL. To `O=C(CSCc1c(F)cccc1F)Nc1ccccc1` belongs 37.7 µg/mL (≈ 129 µM); to `COc1ccc(/C=C(\C#N)C(=O)Nc2cccc(C)n2)cc1`, 0.4 µg/mL (≈ 1.36 µM); to `O=C(Nc1cccc(Cl)c1Cl)C1CCCO1` (stereo not drawn), 26.7 µg/mL (≈ 103 µM). In the case of `CC(=O)Oc1ccc(-c2nc3ccccc3c(=O)o2)cc1`, the solubility (kinetic) came to 2.6 µg/mL (≈ 9.24 µM). As for `Cc1ccc(NC(=O)COC(=O)C2=NNC(=O)CC2)c(Br)c1`, the solubility (kinetic) is greater than 55.2 µg/mL.

The values above are taken from PubChem BioAssay AID1996.
